In the RepoRT retention time repository one finds LC retention time data, which are given here for 58 compounds.

The structures appear in SMILES notation.

The data set can be described thus: RP, Waters ACQUITY Premier BEH C18, 100 × 2.1 mm, 1.7 µm, 40 °C, 0.3 to 0.4 mL/min, estimated dead time 0.73 min; A: water + 0.1% formic acid; B: acetonitrile + 0.1% formic acid; gradient (min/%B) 0/0.5 0.1/0.5 10/80 10.1/99.5 12/0.5 12.1/0.5 14.5/0.5. Particulars: stereoisomer not certain.
Consider `NCCOP(=O)(O)OP(=O)(O)OCC1OC(n2ccc(N)nc2=O)C(O)C1O` (stereo not drawn) [CDP-ETHANOLAMINE], for which the LC retention time is 0.882 min.

Regarding `CCCCCCC=CCCCCCCCC(=O)O` [PALMITOLEIC ACID], the LC retention time is 8.15 min.

For `OCC1OC(OC2OC(CO)C(O)C(O)C2O)C(O)C(O)C1O` (stereo not drawn) [TREHALOSE], the LC retention time was 0.911 min.

For `NC1CCSC1=O` (stereo not drawn) [HOMOCYSTEINE THIOLACTONE], the LC retention time was 0.939 min.

As for `CCC=CCC1C(=O)CCC1CC(=O)OC` (stereo not drawn) [METHYL JASMONATE], the LC retention time was 7.43 min.

Take `Nc1ccn(C2OC(CO)C3OP(=O)(O)OC32)c(=O)n1` (stereo not drawn) [CYTIDINE 2',3'-CYCLIC PHOSPHATE]: the LC retention time is 0.94 min.

As for `COc1cc(CNC(=O)CCCCC=CC(C)C)ccc1O` [CAPSAICIN], the LC retention time was 7.3 min.

Take `OCC1OC(OCC2OC(OCC3OC(OC4(CO)OC(CO)C(O)C4O)C(O)C(O)C3O)C(O)C(O)C2O)C(O)C(O)C1O` (stereo not drawn) [STACHYOSE]: the LC retention time is 0.921 min.

For the compound `COc1cc2c(cc1O)CCC1C2CCC2(C)C(=O)CCC12` (stereo not drawn) [2-METHOXYESTRONE], the LC retention time is 7.38 min.

Consider `C=C(C)C1Cc2c(ccc3c2OC2COc4cc(OC)c(OC)cc4C2C3=O)O1` (stereo not drawn) [ROTENONE], for which the LC retention time is 7.55 min.

Turning to `CCCCCCCCC=CCCCCCCCC(=O)OCC(O)CO` (stereo not drawn) [OLEOYL-GLYCEROL], the LC retention time was 9.52 min.

Regarding `CC1(C)C=Cc2c(ccc3c2OCC(c2ccc(O)cc2O)C3)O1` [(R)-GLABRIDIN], the LC retention time is 7.48 min.

For the compound `NC(CCOC(=O)CCC(=O)O)C(=O)O` (stereo not drawn) [O-SUCCINYL-HOMOSERINE], the LC retention time is 1.68 min.

As to `O=C(O)c1ccccc1` [BENZOATE], the LC retention time is 4.51 min.

Regarding `CC=C1C(OC2OC(CO)C(O)C(O)C2O)OC=C(C(=O)OC)C1CC(=O)OCCc1ccc(O)c(O)c1` (stereo not drawn) [OLEUROPEIN], the LC retention time was 5.05 min.

Regarding `Nc1nc2c(ncn2C2OC3COP(=O)(O)OC3C2O)c(=O)[nH]1` (stereo not drawn) [CYCLIC GMP], the LC retention time is 3.35 min.

For the compound `Nc1ncnc2c1ncn2C1CC(O)C(CO)O1` (stereo not drawn) [DEOXYADENOSINE], the LC retention time was 3.33 min.

`O=C(OCC1=CC(O)C2C=COC(OC3OC(CO)C(O)C(O)C3O)C12)c1ccc(O)cc1` (stereo not drawn) [AGNUSIDE]: the LC retention time was 4.2 min.

As for `O=C(C=Cc1ccc(O)c(O)c1)OC1C(O)CC(O)(C(=O)O)CC1O` (stereo not drawn) [CRYPTOCHLOROGENIC ACID], the LC retention time is 3.67 min.

For the compound `COc1ccc(CC(=O)O)cc1OC` [HOMOVERATRIC ACID], the LC retention time was 5.34 min.

In the case of `COc1cc(C2Oc3cc(C4Oc5cc(O)cc(O)c5C(=O)C4O)ccc3OC2CO)ccc1O` (stereo not drawn) [SILIBININ], the LC retention time is 5.88 min.

Take `O=c1cc(-c2ccccc2)oc2cc(O)cc(O)c12` [5,7-DIHYDROXYFLAVONE]: the LC retention time was 7.23 min.

For the compound `O=C(O)C1CCC(O)CC1` (stereo not drawn) [4-HYDROXYCYCLOHEXYLCARBOXYLIC ACID], the LC retention time is 4.05 min.

Consider `COc1c(O)cc2oc(-c3ccc(O)cc3)cc(=O)c2c1O` [5,7-DIHYDROXY-2-(4-HYDROXYPHENYL)-6-METHOXY-4H-CHROMEN-4-ONE], for which the LC retention time is 6.08 min.

For `O=C(O)CCCCCCC(=O)NCC(=O)O` [SUBERYLGLYCINE], the LC retention time was 3.79 min.

Consider `O=c1cc(-c2ccc(O)c(O)c2)oc2c(C3OC(CO)C(O)C(O)C3O)c(O)cc(O)c12` (stereo not drawn) [ORIENTIN], for which the LC retention time was 5.18 min.

Consider `O=C(O)Cc1cc(O)ccc1O` [HOMOGENTISATE], for which the LC retention time was 3.66 min.

Regarding `COc1cc(C=CC(=O)O)ccc1O` [FERULATE], the LC retention time was 5.17 min.

With `COc1ccc(-c2coc3cc(O)cc(O)c3c2=O)cc1` [BIOCHANIN A], the LC retention time was 7.15 min.

Regarding `O=c1cc(-c2ccc(O)cc2)oc2cc(O)cc(O)c12` [APIGENIN], the LC retention time was 6.02 min.

For `O=C(O)C1=COC(OC2OC(CO)C(O)C(O)C2O)C2C(CO)=CCC12` (stereo not drawn) [GENIPOSIDIC ACID], the LC retention time is 1.89 min.

`CC(=O)NC(Cc1ccccc1)C(=O)O` (stereo not drawn) [N-ACETYLPHENYLALANINE]: the LC retention time was 5.18 min.

On to `O=C(CCc1ccc(O)cc1)c1c(O)cc(O)cc1O` [PHLORETIN], for which the LC retention time is 6.03 min.

Regarding `COc1ccc(-c2coc3cc(O)ccc3c2=O)cc1` [FORMONONETIN], the LC retention time was 6.65 min.

On to `CC(=O)OC(C)(C)C=CC(=O)C(C)(O)C1C(O)CC2(C)C3CC=C4C(CC(O)C(=O)C4(C)C)C3(C)C(=O)CC12C` (stereo not drawn) [CUCURBITACIN B], for which the LC retention time is 7.07 min.

Take `Cn1cnc(=N)c2[nH]cnc21` [3-METHYLADENINE]: the LC retention time is 0.904 min.

`CSCCC(=O)C(=O)O` [2-OXO-4-METHYLTHIOBUTANOIC ACID]: the LC retention time was 3.7 min.

As to `CC1(C(=O)O)CCC2(C)CCC3(C)C(=CC(=O)C4C5(C)CCC(O)C(C)(C)C5CCC43C)C2C1` (stereo not drawn) [GLYCYRRHETINIC ACID], the LC retention time was 8.08 min.

As for `O=C1CCCC(C(=O)O)N1` (stereo not drawn) [6-OXOPIPERIDINE-2-CARBOXYLIC ACID], the LC retention time is 1.34 min.

With `O=C(O)c1ccc(O)cc1O` [2,4-DIHYDROXYBENZOIC ACID], the LC retention time is 4 min.

Consider `Oc1ccc(O)cc1` [HYDROQUINONE], for which the LC retention time is 4.46 min.

As to `O=c1cc[nH]c(=O)[nH]1` [URACIL], the LC retention time is 1.39 min.

Take `O=C(O)CNC(=O)Cc1ccccc1` [PHENYLACETYLGLYCINE]: the LC retention time is 4.21 min.

For the compound `COc1cc(C(=O)O)ccc1O` [VANILLIC ACID], the LC retention time was 3.91 min.

Regarding `COc1ccc(C2CC(=O)c3c(O)cc(OC4OC(COC5OC(C)C(O)C(O)C5O)C(O)C(O)C4O)cc3O2)cc1O` (stereo not drawn) [HESPERIDINE], the LC retention time was 4.77 min.

On to `CC(=O)NC1C(O)OC(CO)C(O)C1OC(C)C(=O)O` (stereo not drawn) [N-ACETYLMURAMATE], for which the LC retention time is 1.09 min.

As for `O=C(O)CNC(=O)c1ccccc1O` [SALICYLURIC ACID], the LC retention time was 4.56 min.

Take `NCCc1ccc(O)c(O)c1` [DOPAMINE]: the LC retention time is 1.74 min.

For the compound `CS(=O)CCCCN=C=S` (stereo not drawn) [SULFORAPHANE], the LC retention time was 4.72 min.

In the case of `O=C(O)c1cccc(O)c1O` [2,3-DIHYDROXYBENZOATE], the LC retention time was 4.71 min.

As to `CC1OC(O)C(O)C(O)C1O` (stereo not drawn) [RHAMNOSE], the LC retention time is 0.913 min.

Turning to `CCCCCCCCCCCCCCC(O)C(=O)O` (stereo not drawn) [2-HYDROXYHEXADECANOIC ACID], the LC retention time is 8.98 min.

As to `NC(=O)c1ncn(C2OC(COP(=O)(O)O)C(O)C2O)c1N` (stereo not drawn) [AICAR], the LC retention time is 1.28 min.

On to `CC(=O)NC(CO)C(=O)O` (stereo not drawn) [N-ACETYLSERINE], for which the LC retention time is 1.12 min.

In the case of `CCCCCCCCCCCC(=O)OC(CC(=O)O)C[N+](C)(C)C.[Cl-]` (stereo not drawn) [ISTD_LAUROYL-CARNITINE-D3], the LC retention time is 7.14 min.

Regarding `CCCCCCC(O)CCCCCCCCCCC(=O)O` (stereo not drawn) [12-HYDROXYSTEARIC ACID], the LC retention time is 8.29 min.

On to `OCC(O)c1ccc(O)c(O)c1` (stereo not drawn) [3,4-DIHYDROXYPHENYLGLYCOL], for which the LC retention time is 1.86 min.

As for `OCC1OC(Oc2ccc(O)cc2)C(O)C(O)C1O` (stereo not drawn) [ARBUTIN], the LC retention time is 1.12 min.
